PMC13198257, “An aerosolized dual-action autotaxin inhibitor-PPARγ agonist for the treatment of pulmonary fibrosis” (Cell Reports Medicine, 2026)

Tested on: lung gene expression
Assay: RNA sequencing of lung tissue (BLM/EL244 vs BLM)
Assay type: in vivo, mouse
Procedure: RNA quality was assessed using an Agilent TapeStation 4150 with the High Sensitivity […] ScreenTape (Agilent), according to the manufacturer’s protocols. For library preparation, the QuantSeq 3’mRNA-Seq Library Prep Kit (Lexogen) was used according to manufacturer’s instructions. Briefly, 500 ng of RNA from each sample was used for first-strand synthesis, followed by RNA template removal, and second-strand synthesis initiated by random primers. In-line barcodes were introduced at this step, and this was followed by magnetic bead-based purification. The resulting libraries were amplified for 15 cycles and re-purified, with quantity and quality assessed on a Qubit 4 Fluorometer with the Invitrogen Qubit dsDNA HS Assay and an Agilent Tapestation 4150 with the High Sensitivity D1000 assay kit, respectively. The quantified libraries were pooled equimolarly; 50ng of total library mix was used for Adapter Conversion PCR Amplification using the Universal Library Conversion Kit (App-A), Version: V1.0 (MGI Tech Co., Ltd.), according to the manufacturer’s instructions.
The quantity and quality of the purified adapter conversion PCR (AC-PCR) product were evaluated on a Qubit 4 Fluorometer with the Invitrogen Qubit dsDNA HS Assay and on an Agilent Tapestation 4150 with the High Sensitivity D1000 assay kit, respectively. This was followed by DNA denaturation, Single-Strand Circularisation, Enzymatic Digestion, Enzymatic Digestion Product Cleanup and Quality Control steps on 1 pmol of AC-PCR product, according to the Universal Library Conversion Kit (App-A) User Manual (Version: A3).
Finally, 60 fmol of ssCirDNA were used for DNB preparation and sequencing on a DNBSEQ-G400 platform at the BSRC Alexander Fleming Genomics Facility, using a G400 App-A FCS SE100 High-throughput Sequencing Set (MGI Tech Co., Ltd.), according to the manufacturer’s instructions.
Alignment of the FASTQ files was performed against the mouse genome build mm10 using a custom Bash script.[143] Read counting on the 3′ UTRs and differential expression analysis were conducted using the metaseqR2 bioconductor package.[144] Genes corresponding to the following biotypes were excluded: polymorphic_pseudogene, processed_transcript, pseudogene, IG_V_pseudogene, misc_RNA, IG_C_gene, IG_J_gene, IG_D_gene, IG_LV_gene, TR_V_gene, TR_V_pseudogene, TEC, and processed_pseudogene. Gene counts were normalized with DESEQ[145] through metaseqR2. Genes with more than 10 counts in at least 50% of the samples were kept for further processing. For differential expression analysis, the PANDORA algorithm[146] was used to estimate a meta p-value integrating the results from the DESEQ, DESEQ2,[147] edgeR,[148] limma,[149] NBPSeq,[150] and NOISeq[151] algorithms. All additional parameters were set to default values.
Pathway enrichment analysis was performed for the Gene Ontology Biological process (BP) and Molecular Function (MF) terms through GeneCodis 4.[152] The volcano plots, scatterplots, Venn diagrams, and dot plots were generated using the ggplot2 Bioconductor package.

O=C1NC(=O)C(Cc2ccc(OCCC3CCN(C(=O)OCc4cc(Cl)cc(Cl)c4)CC3)cc2)S1 (stereo not drawn) [EL244, 3,5-dichlorobenzyl 4-(2-(4-((2,4-dioxothiazolidin-5-yl)methyl)phenoxy)ethyl)piperidine-1-carboxylate]
Rora log2 nFC BLM/EL244 vs BLM (DEG Rora, nFC: normalised fold change): 0.80
log2 nFC BLM/EL244 vs BLM (DEG Rrm2): -2.56
Ryr2 log2 nFC BLM/EL244 vs BLM (DEG Ryr2, nFC: normalised fold change): 2.14
S1pr4 log2 nFC BLM/EL244 vs BLM (DEG S1pr4, nFC: normalised fold change): 0.94
S1pr5 log2 nFC BLM/EL244 vs BLM (DEG S1pr5, nFC: normalised fold change): 1.64
log2 nFC BLM/EL244 vs BLM (DEG S100a4): -1.26
S100a8 log2 nFC BLM/EL244 vs BLM (DEG S100a8, nFC: normalised fold change): 1.52
S100a9 log2 nFC BLM/EL244 vs BLM (DEG S100a9, nFC: normalised fold change): 2.11
log2 nFC BLM/EL244 vs BLM (DEG S100a14): -1.28
Scn3a log2 nFC BLM/EL244 vs BLM (DEG Scn3a, nFC: normalised fold change): 0.75
Scube2 log2 nFC BLM/EL244 vs BLM (DEG Scube2, nFC: normalised fold change): 0.74
Sec14l3 log2 nFC BLM/EL244 vs BLM (DEG Sec14l3, nFC: normalised fold change): 0.69
Sec14l4 log2 nFC BLM/EL244 vs BLM (DEG Sec14l4, nFC: normalised fold change): 0.77
Sell log2 nFC BLM/EL244 vs BLM (DEG Sell, nFC: normalised fold change): 1.03
Sema3g log2 nFC BLM/EL244 vs BLM (DEG Sema3g, nFC: normalised fold change): 0.78
log2 nFC BLM/EL244 vs BLM (DEG Serpina3g): -1.31
Sftpa1 log2 nFC BLM/EL244 vs BLM (DEG Sftpa1, nFC: normalised fold change): 0.70
Sgip1 log2 nFC BLM/EL244 vs BLM (DEG Sgip1, nFC: normalised fold change): 0.90
Sgms1 log2 nFC BLM/EL244 vs BLM (DEG Sgms1, nFC: normalised fold change): 0.71
log2 nFC BLM/EL244 vs BLM (DEG Ska1): -2.52
log2 nFC BLM/EL244 vs BLM (DEG Slamf8): -1.24
Slc2a4rg-ps log2 nFC BLM/EL244 vs BLM (DEG Slc2a4rg-ps, nFC: normalised fold change): 0.85
Slc7a10 log2 nFC BLM/EL244 vs BLM (DEG Slc7a10, nFC: normalised fold change): 0.97
log2 nFC BLM/EL244 vs BLM (DEG Slc7a11): -1.50
Slc16a11 log2 nFC BLM/EL244 vs BLM (DEG Slc16a11, nFC: normalised fold change): 0.79
Slc38a4 log2 nFC BLM/EL244 vs BLM (DEG Slc38a4, nFC: normalised fold change): 1.12
Slc43a3 log2 nFC BLM/EL244 vs BLM (DEG Slc43a3, nFC: normalised fold change): 0.73
Sln log2 nFC BLM/EL244 vs BLM (DEG Sln, nFC: normalised fold change): 2.01
Smad6 log2 nFC BLM/EL244 vs BLM (DEG Smad6, nFC: normalised fold change): 1.18
Smpx log2 nFC BLM/EL244 vs BLM (DEG Smpx, nFC: normalised fold change): 2.34
Smyd1 log2 nFC BLM/EL244 vs BLM (DEG Smyd1, nFC: normalised fold change): 1.73
Snhg11 log2 nFC BLM/EL244 vs BLM (DEG Snhg11, nFC: normalised fold change): 1.40
Sntb1 log2 nFC BLM/EL244 vs BLM (DEG Sntb1, nFC: normalised fold change): 0.72
Snx21 log2 nFC BLM/EL244 vs BLM (DEG Snx21, nFC: normalised fold change): 1.15
Sorbs1 log2 nFC BLM/EL244 vs BLM (DEG Sorbs1, nFC: normalised fold change): 0.70
Sorbs3 log2 nFC BLM/EL244 vs BLM (DEG Sorbs3, nFC: normalised fold change): 0.80
log2 nFC BLM/EL244 vs BLM (DEG Sox9): -1.42
log2 nFC BLM/EL244 vs BLM (DEG Spp1): -1.50
Srcin1 log2 nFC BLM/EL244 vs BLM (DEG Srcin1, nFC: normalised fold change): 0.91
Syne1 log2 nFC BLM/EL244 vs BLM (DEG Syne1, nFC: normalised fold change): 0.70
Synm log2 nFC BLM/EL244 vs BLM (DEG Synm, nFC: normalised fold change): 0.84
log2 nFC BLM/EL244 vs BLM (DEG Tacc3): -1.27
Tbata log2 nFC BLM/EL244 vs BLM (DEG Tbata, nFC: normalised fold change): 1.72
Tbkbp1 log2 nFC BLM/EL244 vs BLM (DEG Tbkbp1, nFC: normalised fold change): 0.71
Tcap log2 nFC BLM/EL244 vs BLM (DEG Tcap, nFC: normalised fold change): 1.73
log2 nFC BLM/EL244 vs BLM (DEG Tcf19): -1.42
Tex11 log2 nFC BLM/EL244 vs BLM (DEG Tex11, nFC: normalised fold change): 1.83
Tgfbr3 log2 nFC BLM/EL244 vs BLM (DEG Tgfbr3, nFC: normalised fold change): 0.83
Tmem100 log2 nFC BLM/EL244 vs BLM (DEG Tmem100, nFC: normalised fold change): 0.82
Tmem182 log2 nFC BLM/EL244 vs BLM (DEG Tmem182, nFC: normalised fold change): 2.26
Tmem132d log2 nFC BLM/EL244 vs BLM (DEG Tmem132d, nFC: normalised fold change): 2.38
log2 nFC BLM/EL244 vs BLM (DEG Tnip3): -1.47
Tnnc1 log2 nFC BLM/EL244 vs BLM (DEG Tnnc1, nFC: normalised fold change): 2.18
Tnni3 log2 nFC BLM/EL244 vs BLM (DEG Tnni3, nFC: normalised fold change): 2.31
Tnnt2 log2 nFC BLM/EL244 vs BLM (DEG Tnnt2, nFC: normalised fold change): 1.77
Tns2 log2 nFC BLM/EL244 vs BLM (DEG Tns2, nFC: normalised fold change): 0.77
Tppp3 log2 nFC BLM/EL244 vs BLM (DEG Tppp3, nFC: normalised fold change): 0.77
